{"source": "paper PMC6421297", "about": "“Novel Mouse Tauopathy Model for Repetitive Mild Traumatic Brain Injury: Evaluation of Long-Term Effects on Cognition and Biomarker Levels After Therapeutic Inhibition of Tau Phosphorylation” (Frontiers in Neurology, 2019)", "key": {"[1]": {"tested_on": "tau phosphorylation at Thr231 and Ser202 in SH-SY5Y-(P301L) cells", "format": "cell-based", "conditions": "6 h", "method": "(§1) SH-SY5Y-P301L cells (gift from Prof. Fred Van Leuven, Department of Human Genetics, KU Leuven, Belgium) were cultured Dulbecco's Modified Eagle Medium (DMEM):Nutrient Mixture F-12 (DMEM/F-12, Gibco, c/o Invitrogen, Saint Aubin, France) containing 1% Penicillin-Streptomycin mixture (Gibco) and 10% fetal bovine serum (FBS, Gibco) in a humidified, 5% CO2 incubator at 37°C. Cells were split routinely once a week. Cells were seeded at a density of 1.5 x 10^6 cells/well in P60 well plates with 4 ml medium/well and exposed for 6 h to a range of ros concentrations (Figures 2–4) or to a few concentrations of various kinase inhibitors with different selectivities (Figure 3). At the end of the incubation cells were harvested for Western blotting. Cells were scraped in cold phosphate-buffered saline, centrifuged at 10,000 x g for 5 min at 4°C, and pellets were snap-frozen in liquid nitrogen. Experiments were repeated three or four times.\n(§2) For Western blot analysis, cell pellets were lysed in homogenization buffer (25 mM MOPS, 15 mM EGTA, 15 mM MgCl2, 60 mM β-glycerophosphate, 15 mM p-nitrophenylphosphate, 2 mM dithiothreitol (DTT), 1 mM Na3VO4, 1 mM NaF, 1 mM disodium phenylphosphate, 1x protease inhibitor cocktail, 0.2% Nonidet P-40 substitute). Protein extracts were mixed (1:1 v/v) with sample buffer (2 × NuPAGE LDS sample buffer, 200 mM DTT) and 20 μg of total protein was loaded on NuPAGE 4–12% Bis-Tris protein gels. Electrophoresis was carried out at 70 V in MOPS buffer for 4 h. Rapid blot transfers were performed at 2.5A/25V for 7 min. […] P-tau and T-tau signals were first normalized to GAPDH from the same membranes, and then divided one by another to obtain the level of pS202 or pT231 relative to T-tau. Values are presented as mean±SEM of three or four independent experiments."}, "epileptic rats": {"tested_on": "epileptic rats", "set-up": "method as in PMID 28595035", "conditions": "cited from earlier work"}, "mice following TBI": {"tested_on": "mice following TBI", "conditions": "cited from earlier work"}, "[2]": {"tested_on": "S202-Tau phosphorylation in SH-SY5Y-(P301L) cells", "assay": "Western blot of pS202-tau/T-tau in SH-SY5Y-(P301L) cells, roscovitine and/or LiCl, with coefficient of drug interaction", "format": "cell-based", "conditions": "6 h; for tau phosphorylation (pS202-tau), individual treatment: single agent", "method": "as §1, §2\nFor cell cultures and immunoblotting data the two-tailed unpaired t-test (Graphpad Prism) was used. Coefficients of drug interaction (CDI) were calculated as follows: CDI = AB/(A × B). According to the ratio pS202 tau/T-tau of each group, AB is the ratio of the combination groups to control group; A or B is the ratio of the single agent group to control group. […]"}}, "data": [{"smiles": "COc1ccc2c(c1)[nH]c1c(C)nccc12", "note": "[harmine]", "values": [{"measurement": "reduction of tau phosphorylation by inhibitors to secondary kinase targets", "setting": "[1]; 25, 50, and 100 μM", "value": "none of the inhibitors to secondary kinase targets reduced tau phosphorylation"}]}, {"smiles": "CC[C@H](CO)Nc1nc(NCc2ccccc2)c2ncn(C(C)C)c2n1", "note": "[Roscovitine, (R)-roscovitine]", "values": [{"measurement": "epilepsy-induced axonal impairment", "setting": "epileptic rats", "value": "reversed axonal impairment"}, {"measurement": "cognitive deficits, spatial learning and memory after TBI", "setting": "mice following TBI", "value": "attenuated cognitive deficits and improved spatial learning and memory"}, {"measurement": "inhibition of Ser202 phosphorylation, ros alone", "setting": "[2]; ros alone", "value": "moderate and dose-dependent inhibition"}, {"measurement": "tau phosphorylation (pS202-tau), individual treatment", "setting": "[2]", "value": "slightly down-regulated"}, {"measurement": "inhibition of Thr231 and Ser202 phosphorylation", "setting": "[1]; range of ros concentrations", "value": "dose-dependent inhibition"}, {"measurement": "Inhibition of tau phosphorylation at Thr231 and Ser202", "setting": "[1]; 25, 50, and 100 μM", "value": "evident"}]}, {"smiles": "N#CC(=C(/N)Sc1ccccc1N)/C(C#N)=C(/N)Sc1ccccc1N", "note": "[UO126]", "values": [{"measurement": "reduction of tau phosphorylation by inhibitors to secondary kinase targets", "setting": "[1]; 25, 50, and 100 μM", "value": "none of the inhibitors to secondary kinase targets reduced tau phosphorylation"}]}, {"smiles": "[Cl-].[Li+]", "note": "[LiCl, lithium chloride]", "values": [{"measurement": "epilepsy-induced axonal impairment", "setting": "epileptic rats", "value": "reversed axonal impairment"}, {"measurement": "dose-response of pS202-tau inhibition, LiCl alone", "setting": "[2]; LiCl alone", "value": "no dose-response relationship"}, {"measurement": "tau phosphorylation (pS202-tau), individual treatment", "setting": "[2]", "value": "slightly down-regulated"}]}, {"smiles": "CCc1cnn2c(NCc3ccc[n+]([O-])c3)cc(N3CCCC[C@H]3CCO)nc12", "note": "[SCH727965]", "values": [{"measurement": "Inhibition of tau phosphorylation at Thr231 and Ser202", "setting": "[1]; 25, 50, and 100 μM", "value": "evident"}]}, {"smiles": "NC(=O)c1ccc(-c2nc(-c3ccc4c(c3)OCCO4)c(-c3ccccn3)[nH]2)cc1", "note": "[D4476]", "values": [{"measurement": "reduction of tau phosphorylation by inhibitors to secondary kinase targets", "setting": "[1]; 25, 50, and 100 μM", "value": "none of the inhibitors to secondary kinase targets reduced tau phosphorylation"}]}, {"smiles": "CC(C)(C)c1cnc(CSc2cnc(NC(=O)C3CCNCC3)s2)o1", "note": "[SNS-032, N-[5-[[[5-(1,1-dimethylethyl)-2-oxazolyl]methyl]thio]-2-thiazolyl]-4-piperidinecarboxamide]", "values": [{"measurement": "Inhibition of tau phosphorylation at Thr231 and Ser202", "setting": "[1]; 25, 50, and 100 μM", "value": "evident"}]}, {"smiles": "CCC(CO)Nc1nc(N(C)Cc2ccccc2)c2ncn(C(C)C)c2n1", "note": "(centres unmarked) [N6-methyl-roscovitine]", "values": [{"measurement": "Inhibition of tau phosphorylation at Thr231 and Ser202", "setting": "[1]; 25, 50, and 100 μM", "value": "not"}]}, {"smiles": "CC[C@H](CO)Nc1nc(NCc2ccc(-c3ccccn3)cc2)c2ncn(C(C)C)c2n1", "note": "[CR8]", "values": [{"measurement": "Inhibition of tau phosphorylation at Thr231 and Ser202", "setting": "[1]; 25, 50, and 100 μM", "value": "evident"}]}, {"smiles": "CCN1/C(=C/C(C)=O)Sc2ccc(OC)cc21", "note": "[TG003]", "values": [{"measurement": "reduction of tau phosphorylation by inhibitors to secondary kinase targets", "setting": "[1]; 25, 50, and 100 μM", "value": "none of the inhibitors to secondary kinase targets reduced tau phosphorylation"}]}, {"smiles": "COc1cccc(-c2cc(=O)c3ccccc3o2)c1N", "note": "[PD098059]", "values": [{"measurement": "reduction of tau phosphorylation by inhibitors to secondary kinase targets", "setting": "[1]; 25, 50, and 100 μM", "value": "none of the inhibitors to secondary kinase targets reduced tau phosphorylation"}]}, {"smiles": "COc1cc(OC)c(C=C2C(O)=Nc3ccccc32)c(OC)c1", "note": "[IC261]", "values": [{"measurement": "activity at site pSer202", "setting": "[1]; 25, 50, and 100 μM", "value": "active"}]}, {"smiles": "O=C1NC(Nc2ccccc2)=N/C1=C\\c1ccc2c(c1)OCO2", "note": "[Leucettine 41]", "values": [{"measurement": "reduction of tau phosphorylation by inhibitors to secondary kinase targets", "setting": "[1]; 25, 50, and 100 μM", "value": "none of the inhibitors to secondary kinase targets reduced tau phosphorylation"}]}, {"smiles": "O=C(NC1CCNCC1)c1[nH]ncc1NC(=O)c1c(Cl)cccc1Cl", "note": "[AT7519]", "values": [{"measurement": "Inhibition of tau phosphorylation at Thr231 and Ser202", "setting": "[1]; 25, 50, and 100 μM", "value": "evident"}]}, {"smiles": "CC[C@@H](CO)Nc1nc(N(C)Cc2ccc(-c3ccccn3)cc2)c2ncn(C(C)C)c2n1", "note": "[N6-methyl-CR8]", "values": [{"measurement": "cause of decreases in P-tau at the high dose", "setting": "[1]; 100 μM", "value": "likely the result of drug-associated cell toxicity"}, {"measurement": "Inhibition of tau phosphorylation at Thr231 and Ser202", "setting": "[1]; 25, 50, and 100 μM", "value": "not"}]}]}
